Patent US20230312577A1, “DUAL KINASE-BROMODOMAIN INHIBITORS” (MONASH UNIVERSITY, priority 2020, published 2023)

Legend:
OPM2 cells = assay: Cell proliferation assay (ViaLight, cellular ATP); type: cell-based; settings: Homo sapiens, OPM-2, 120 h, 5 days, 5 μM to 1 nM
How it was run: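 1×10^3 cells per well exposed to compounds at final 5 μM to 1 nM for 5 days. Viability read as cellular ATP by ViaLight luminescence, technical triplicates. GI50 computed from the dose–response.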

PI3K [1] = target: T1, PI3K; assay: PI3K enzyme activity assay (luminescence, ATP consumption, Kinase-Glo); type: biochemical; settings: 10 μM ATP, 180 μM phosphatidyl inositol, 60 min
T1 construct: PI3K Enzyme Activity Assay IC50 (nM); other: 10 μM ATP, 180 μM phosphatidyl inositol, 60 min
Protocol: (§1) PI3K activity was determined using a luminescence assay measuring ATP consumption as described previously (J.-A. Pinson, Z. Zheng, M. S. Miller, D. K. Chalmers, I. G. Jennings, P. E. Thompson, L-Aminoacyl-triazine derivatives are isoform-selective PI3Kβ inhibitors that target nonconserved Asp862 of PI3Kb, ACS Med. Chem. Lett. 4 (2013) 206-210). PI3K enzyme activity was determined in 25 μl of 20 mM HEPES pH 7.5, 5 mM MgCl2 with 180 μM phosphatidyl inositol and 10 μMATP. After a 60 min incubation at room temperature the reaction was stopped by the addition of Kinase-Glo (Promega) followed by a further 15 min incubation. Luminescence was then read using a Fluostar plate reader (BMGLabtech).
(§2) Inhibitors were diluted in 20% (v/v) DMSO at the indicated concentrations in order to generate a concentration versus inhibition of enzyme activity curve which was then analysed using GraphPad Prism version 8.00 for Windows, (GraphPad Software, San Diego California USA) in order to calculate the IC50. Standard deviations for the calculated IC50's are within 25% of the mean.

[2] = target: GST-BRD4 (binding domain 1, amino acids 44-168) (Homo sapiens, UniProt O60885); assay: Bromodomain binding assay (FRET); settings: BRD4 binding domain 1, tetracetylated histone 4 peptide
Protocol: Inhibition of bromodomain binding was measured using a FRET (fluorescence resonance energy transfer) based assay. […] In the presence of the two detection reagents, streptavidin D2 and anti-GST-Eu (CisBio) binding trig-gers a FRET signal detected by fluorescence at 665 nm as measured using a Pherastar reader (BMG Labtech). Data was analysed using GraphPad Prism version 8.00 for Windows, (GraphPad Software, San Diego California USA) in order to calculate the IC50. Standard deviations for the calculated IC50's are within 25% of the mean.

PI3K [3] = assay: PI3K enzyme activity assay (luminescence, ATP consumption, Kinase-Glo); type: biochemical
Protocol: as §1, §2

[4] = system: MLL-AF9 cells (IBET-151-sensitive and IBET-151-resistant); assay: Apoptosis assay in BET-inhibitor-resistant cells (Annexin V/PI); type: cell-based, mouse; settings: 1 μM, 72 h
Protocol: Mouse AML cells; MLL-AF9 (IBET-151-sensitive and IBET-151-resistant) (5×10^4) were treated with indicated compounds for 72 h. Apoptotic analysis was performed by flow cytometry using Annexin V/propidium iodide (PI) stains. Data were collected on a BD LSR-Fortessa X20 (BD Biosciences) and analysed using FlowJo Software, version 10.0.7 (Tree Star). IC50 were calculated using the GraphPad Prism Software Version 7.0c. Data are representative of biological triplicates.

| SMILES | GI50 (OPM2 cells) | IC50 (PI3K [1]) | IC50 [2] | selectivity (PI3K) (PI3K [3]) | apoptosis in I-BET151-resistant MLL-AF9 cells [4] |
| --- | --- | --- | --- | --- | --- |
| CC(=O)N1c2ccc(-c3ccc(C(=O)NCCNC(=O)c4cn5cc(-c6cnc(N)nc6)nc(N6CCOCC6)c5n4)cc3)cc2CCC1C (centres unmarked) [Cpd 009, N-(2-(4-(1-Acetyl-2-methyl-1,2,3,4-tetrahydroquinolin-6-yl)benzamido)ethyl)-6-(2-ami-nopyrimidin-5-yl)-8-morpholinoimidazo[1,2-a]pyrazine-2-carboxamide] | ≤ 100 nM | 100 to 500 nM | ≤ 100 nM | – | – |
| CC(=O)N1c2ccc(-c3ccc(C(=O)NCCCNC(=O)c4cn5cc(-c6cnc(N)nc6)nc(N6CCOCC6)c5n4)cc3)cc2CC[C@@H]1C [Cpd 013, (S)-N-(3-(4-(1-Acetyl-2-methyl-1,2,3,4-tetrahydroquinolin-6-yl)benzamido)propyl)-6-(2-aminopyrimidin-5-yl)-8-morpholinoimidazo[1,2-a]pyrazine-2-carboxamide] | > 500 nM | ≤ 100 nM | ≤ 100 nM | – | – |
| CC(=O)N1c2ccc(-c3ccc(CNC(=O)c4cn5cc(-c6cnc(N)nc6)nc(N6CCOCC6)c5n4)cc3)cc2CC[C@H]1C [Cpd 034, (R)-N-(4-(1-acetyl-2-methyl-1,2,3,4-tetrahydroquinolin-6-yl)benzyl)-6-(2-aminopyrimidin-5-yl)-8-morpholinoimidazo[1,2-a]pyrazine-2-carboxamide] | – | – | – | selective PI3K inhibitor | – |
| COc1cc2c(cc1-c1c(C)noc1C)ncc1[nH]c(=O)n([C@H](C)c3ccccn3)c12 [I-BET151, reference compound] | – | – | – | – | resistance to I-BET151 drug in the resistant cells was confirmed |
